From patent US11185548B2, “Inhibitors of cytochrome P450 family 7 subfamily B member 1 (CYP7B1) for use in treating diseases” (HELMHOLTZ ZENTRUM MÜNCHEN—DEUTSCHES FORSCHUNGSZENTRUM FÜR …, priority 2016, dated 2021) come the findings set out here.

Series [1] relates to IgM cross-linked splenic B cells. Put plainly: ex vivo B cell migration assay towards medium from CSE treated airways. Format: cell-based, mouse. Conditions: 10% CSE. The procedure: (§1) Middle and distal airways from C57BL/6J and Ch25h^−/− mice were isolated and incubated ex vivo as described by Yildirim et al. (Eur Respir J 32, 694-704 (2008)). Briefly, after sacrifice by a ketamine-xylazine over dose, the trachea was cannulated, the lungs removed from the thorax and infused with 1% low-melting agarose dissolved in 1:1 Ham's F12 nutrient medium (Sigma-Aldrich) and distilled water (Gibco, Life Technologies). Airways were dissected under a microscope (Zeiss) from the left lung after the agarose had solidified on ice for 30 min. The isolated airways were washed and cultured in airway epithelial cell medium (PromoCell) at 37° C., 5% CO2.
B cells were purified from the spleens of C57BL/6J mice by negative selection (B cell Isolation Kit, mouse, Miltenyi Biotec). For the migration assay, primary mouse airways were isolated 1 day prior, treated with 10% cigarette smoke extract (CSE) in airway epithelial cell culture medium or culture medium alone for 24 h and at the same time to inhibit Cyp7b1, clotrimazole was also diluted with culture medium to a final concentration of 1 μM for 1 h prior to the migration assay. […] The supernatants were transferred as conditioned medium to the lower well of 24-well transwell plates (Permeable Polycarbonate Membrane Inserts, Corning, Fisher Scientific), for inducing B cell migration, while the airway samples were snap frozen in liquid nitrogen for RNA isolation. Freshly isolated B cells at 2.5×10^6/ml in 100 μl were activated by unconjugated AffiniPure F(ab′)2 Fragment Goat anti-mouse IgM, μchain specific antibody (1.3 μg/ml, 115-006-020, Jackson Immunoresearch Laboratories) for 1 hr at 37° C. in 5.0 μm pore sized transwell inserts (Permeable Polycarbonate Membrane Inserts, Corning, Fisher Scientific). Transwell inserts were then placed into the wells of conditioned medium and incubated for 3 hr at 37° C. Migrated B cells were collected and counted by Neubauer Chamber and reported as percentage of input.

Series [2] deals with Ch25h expression. Put plainly: gene expression after 10% CSE + LPS stimulation: Ch25h. Format: cell-based, mouse. Conditions: 10% CSE + 10 μg/mL LPS. The protocol:
(§2) The cells were incubated for 24h at 37° C., 5% CO2, in a 24 well-plate with or without 10% cigarette smoke extract (CSE, 10%)+lipopolysaccharide (LPS, 10 μg/mL), supplemented or not with the 18 CYP7B1 inhibitors (0.3 and 1 μM). B cells were purified from the spleens of C57BL/6J mice by negative selection (B cell Isolation Kit, mouse, Miltenyi Biotec). Freshly isolated B cells at 2.0×10^6/mL in 100 μL were activated by unconjugated AffiniPure F(ab′)2 Fragment Goat anti-mouse IgM, μchain specific antibody (10 μg/mL, 115-006-020, Jackson Immunoresearch Laboratories) for 1 hr at 37° C. in 5.0 μm pore sized transwell inserts (Permeable Polycarbonate Membrane Inserts, Corning, Fisher Scientific). Migrated B cells were collected, and counted by fluorescence-activated cell sorting (FACS) (Trucount tubes, BD Biosciences).
(§3) 10 ng RNA was reverse transcribed using Random Hexamers and MuLV Reverse Transcriptase (Applied Biosystems). Gene expression was analyzed using SensiFAST SYBR Hi-ROX Kit (Bioline) on a StepOnePlus 96 well Real-Time PCR System (Applied Biosystems). […] Expression of each gene was calculated relative to the housekeeping gene 18S as 2^−ΔCt.

Series [3] relates to Tnf expression. Put plainly: gene expression after 10% CSE + LPS stimulation: Tnf. Format: cell-based, mouse. Conditions: 10% CSE + 10 μg/mL LPS. The procedure: as §2, §3
For series [4], the system named is Cyp7b1 expression. Put plainly: gene expression after 10% CSE + LPS stimulation: Cyp7b1. The format is cell-based, mouse. To be noted: 10% CSE + 10 μg/mL LPS. The procedure:
as §2, §3

In series [5] the test system is Cyp7b1 mRNA. In words: quantitative real time RT-PCR of CSE treated airways: Cyp7b1. The format is cell-based, mouse. To be noted: CSE treated airways dissected from C57BL/6 mice, 1 μM clotrimazole. The protocol: (§4) 1 ug RNA was reverse transcribed using Random Hexamers and MuLV Reverse Transcriptase (Applied Biosystems). Gene expression was analyzed using SensiFAST SYBR Hi-ROX Kit (Bioline) on a StepOnePlus 96 well Real-Time PCR System (Applied Biosystems). Primer sequences can be found in Table 1. Expression of each gene was calculated relative to the housekeeping gene HPRT1 or Hprt1 as 2^−[…]Ct.
as §1
(§5) B cells were purified from the spleens of C57BL/6J mice by negative selection (B cell Isolation Kit, mouse, Miltenyi Biotec). […] Migrated B cells were collected and counted by Neubauer Chamber and reported as percentage of input.
A general note: Quantitative PCR measures a nucleic acid by following its amplification.

The subject of series [6] is C57BL/6 mice exposed to cigarette smoke. Put plainly: CS induced COPD model, clotrimazole therapeutic dosing. The format is in vivo, mouse. The procedure: Experimental design: In the early treatment group C57BL/6 mice were exposed to filtered air (FA) or cigarette smoke (CS) for 4 months and treated with clotrimazole (i.p. 80 mg/Kg 3 times per week) from months 2 to 4 or oil controls. In the late treatment group C57BL/6 mice were exposed to FA or CS for 6 months and treated with clotrimazole from months 4 to 6 or oil controls.
8-12 week old mice were used in all experiments. For the CS induced COPD model, mice were exposed to 100% mainstream CS (John et al., Clinical science 126, 207-221 (2014)) at a particle concentration of 500 mg/m^3, generated from 3R4F research cigarettes (Filter removed, Tobacco Research Institute, University of Kentucky), for 50 min twice/day, 5 days/week for 4 or 6 months. Mice exposed to filtered air were used as controls. For the elastase induced iBALT-independent COPD model, mice were instilled oropharyngeally with a single application of 80 U/Kg body weight Porcine Pancreatic Elastase (PPE) (Sigma Aldrich) in 80 μl PBS. Mice treated with 80 μl PBS were included as controls. For Cyp7b1 inhibition, clotrimazole (Sigma Aldrich) 10 mM in DMSO, was further diluted in Corn oil (Mazola, Unilever) and applied i.p. at a dose of 80 mg/Kg body weight 3 times/week for two months. Mice were treated after two or four months of CS exposure and smoked for a further two months in parallel with the clotrimazole treatment.
After lung function analysis lungs were lavaged with 3×500 ul aliquots of sterile PBS (Gibco, Life Technologies) supplemented with Complete Protease Inhibitor Cocktail tablets (Roche Diagnostics). Cells were pelleted at 400 g for 20 min and resuspended in 500 μl RPMI-1640 medium (Gibco, Life Technologies) for the total cell count using a Neubauer Chamber. Cytospins of the cell suspension were then prepared and stained using May-Grünwald-Giemsa for differential cell counting (200 cells/sample) using morphological criteria. BAL fluid was retained for mass spectrometry analysis.
H&E stained tissue sections were analyzed by design-based stereology using an Olympus BX51 light microscope equipped with the new Computer Assisted Stereological Toolbox (newCAST, Visiopharm) as described (John-Schuster et al., American journal of physiology. Lung cellular and molecular physiology 307, L692-706 (2014)), by readers blinded to the study groups. Briefly, for mean chord length (MCL) measurements, 20 frames were selected randomly across multiple sections by the software, using the ×20 objective, and superimposed by a line grid and points. The intercepts of lines on alveolar wall (Lsepta) and points localized on air space (Pair) were counted and calculated as MCL=ΣPair××L(p)/ΣLsepta×0.5, where L(p) is the line length per point. The volume of inflammation (V) was quantified in 50 frames, using the ×40 objective, by counting points hitting inflammatory cell zones (Pinflam). For calculation, the Pinflam were referenced to intercepts of lines with both airways and vessels (Iairway/vessel): V=ΣPinflam×L(p)/ΣIairway/vessel. Further, airway, vessel or septum associated inflammation quantification was classified by the location of the inflammation, and was calculated referring to intercept of lines with airway, vessel, or both, respectively.

The subject of series [7] is Ch25h mRNA. In words: quantitative real time RT-PCR of CSE treated airways: Ch25h. Format: cell-based, mouse. To be noted: CSE treated airways dissected from C57BL/6 mice, 1 μM clotrimazole. The protocol:
as §4, §1, §5

The mark [8] stands for this setting: early and late treatment groups, i.p. 80 mg/Kg 3 times per week.
The mark [9] stands for this setting: early treatment: CS 4 months, i.p. 80 mg/Kg 3 times per week from months 2 to 4.
Setting [10] is: late treatment: CS 6 months, i.p. 80 mg/Kg 3 times per week from months 4 to 6.

Entries after “also recorded” stand apart in the source; their conditions may differ.

In the case of `Clc1ccc(COC(Cn2ccnc2)c2ccc(Cl)cc2Cl)c(Cl)c1` (racemic) [Miconazole, (RS)-1-(2-(2,4-Dichlorobenzyloxy)-2-(2,4-dichlorophenyl)ethyl)-1H-imidazole], in series [1] (compound 1 μM), the “migration of activated B cells towards culture supernatant from CSE-treated airways” value (from here on “migration”) is recorded as “impaired B cell migration”.
Turning to `CC(C)c1nc(CN(C)C(=O)N[C@H](C(=O)N[C@@H](Cc2ccccc2)C[C@H](O)[C@H](Cc2ccccc2)NC(=O)OCc2cncs2)C(C)C)cs1` [Ritonavir, 1,3-thiazol-5-ylmethyl N-[(2S,3S,5S)-3-hydroxy-5-[(2S)-3-methyl-2-{[methyl({[2-(propan-2-yl)-1,3-thiazol-4-yl]methyl})carbamoyl]amino}butanamido]-1,6-diphenylhexan-2-yl]carbamate], the “migration” value in series [1] (compound 0.1 μM) and in series [1] (compound 1 μM) was “impaired B cell migration” in each case.
As to `CC(C)(C(=O)c1cccnc1)c1cccnc1` [Metyrapone, 2-methyl-1,2-di(pyridin-3-yl)propan-1-one], the “migration” value in series [1] (compound 1 μM) is listed as “impaired B cell migration”.
`Clc1ccccc1C(c1ccccc1)(c1ccccc1)n1ccnc1` [clotrimazole, 1-[(2-Chlorophenyl)(diphenyl)methyl]-1H-imidazole]: the “induction of Ch25h expression” value in series [2] is listed as “inhibited”. Further, the “induction of Ch25h expression” value in series [2] (listed as Clotrimazole) is “inhibits the gene expression”. The “migration” value in series [1] (compound 1 μM) is “significantly impaired the ability of activated B cells to migrate; also recorded: impairs B cell migration”. In addition, the “induction of Tnf (TNFα) expression” value in series [3] is reported as “inhibited”. Further, in series [3] (listed as Clotrimazole), the “induction of Tnf (TNFα) expression” value is reported as “inhibits the gene expression”. The “induction of Cyp7b1 expression” value in series [4] is reported as “inhibited”. Moreover, in series [4] (listed as Clotrimazole), the “induction of Cyp7b1 expression” value was “inhibits the gene expression”. Besides, the “Cyp7b1 mRNA abundance” value in series [5] was “sufficient to reduce Cyp7b1 mRNA expression”. Moreover, in series [6] (setting [8]), the “cigarette smoke-induced COPD” value is “protects against and reverses cigarette smoke-induced COPD”; the “lung inflammatory responses following exposure to chronic cigarette smoke” value was “does not attenuate lung inflammatory responses”. In series [6] (setting [9]), the “emphysema development (mean chord length)” value was “lack of emphysema development”; the iBALT formation result is listed as “significantly reduced iBALT formation”; the lung volume entry is recorded as “no deterioration in lung volume”; the “lymphocyte cell numbers in BAL fluid” value is “reduced macrophage and lymphocyte cell numbers”. In series [6] (setting [9]), the “macrophage cell numbers in BAL fluid” value is “reduced macrophage and lymphocyte cell numbers”. In addition, in series [6] (setting [10]), the “emphysema (mean chord length)” value is “attenuated”, the iBALT entry is listed as “attenuated”, the lung volume entry is reported as “reduced lung volume” and the “macrophage cell numbers in BAL fluid” value was “reduced macrophage cell numbers”. Moreover, in series [7], the “Ch25h mRNA abundance” value was “did not affect Ch25h levels”.
